Where “and” joins values, the source holds several entries; their conditions need not be identical. Equal entries are not always repeated. Toxic doses and inconclusive results are not listed. Cut-off read from the data, not from the text of the source: active = T/C of 150% or more; inactive = T/C below 125%.
Tested on: L1210 leukemia ip in BDF1 mice, survival T/C
Experiment: NCI In Vivo Anticancer Drug Screen. Data for tumor model L1210 Leukemia (intraperitoneal) in B6D2F1 (BDF1) mice
Conditions: endpoint: mean survival time, higher = longer survival
Outline: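 Transplanted-tumor mice were given test agent; controls received vehicle only. Survival readings from the two groups were divided (treated over control).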

[1] = dose: 100.0 mg/kg/injection, schedule: Q04DX003 (ip), vehicle: Klucel (hydroxypropylcellulose) (HPC)
[2] = dose: 200.0 mg/kg/injection, schedule: Q04DX003 (ip), vehicle: Klucel (hydroxypropylcellulose) (HPC)
[3] = dose: 400.0 mg/kg/injection, schedule: Q04DX003 (ip), vehicle: Klucel (hydroxypropylcellulose) (HPC)
[4] = dose: 100.0 mg/kg/injection, schedule: Q01DX001 (ip), vehicle: saline
[5] = dose: 200.0 mg/kg/injection, schedule: Q01DX001 (ip), vehicle: saline
[6] = dose: 100.0 mg/kg/injection, schedule: Q04DX002 (ip), vehicle: saline with Tween-80
[7] = dose: 200.0 mg/kg/injection, schedule: Q04DX002 (ip), vehicle: saline with Tween-80
[8] = dose: 400.0 mg/kg/injection, schedule: Q04DX002 (ip), vehicle: saline with Tween-80
[9] = dose: 50.0 mg/kg/injection, schedule: Q01DX001 (ip), vehicle: saline
[10] = dose: 400.0 mg/kg/injection, schedule: Q01DX001 (ip), vehicle: saline
[11] = dose: 100.0 mg/kg/injection, schedule: Q01DX001 (ip), vehicle: carboxymethylcellulose (CMC)
[12] = dose: 200.0 mg/kg/injection, schedule: Q01DX001 (ip), vehicle: carboxymethylcellulose (CMC)
[13] = dose: 400.0 mg/kg/injection, schedule: Q01DX001 (ip), vehicle: carboxymethylcellulose (CMC)

Measured: T/C

Cc1nc(N)cc(Cl)n1
inactive: [1] 101 % of control | [2] 103 % of control | [3] 90 % of control

O=C1OC(c2cccc(Cl)c2)=N/C1=C\c1cc(Br)cc(Br)c1O
inactive: dose: 100.0 mg/kg/injection, schedule: Q04DX002 (ip), vehicle: Klucel (hydroxypropylcellulose) (HPC) 92 % of control | dose: 200.0 mg/kg/injection, schedule: Q04DX002 (ip), vehicle: Klucel (hydroxypropylcellulose) (HPC) 100 % of control | dose: 400.0 mg/kg/injection, schedule: Q04DX002 (ip), vehicle: Klucel (hydroxypropylcellulose) (HPC) 89 % of control

COc1cc(C=Nc2ccc(C(=O)O)cc2)ccc1N(CCCl)CCCl
inactive: dose: 6.0 mg/kg/injection, schedule: Q01DX001 (ip), vehicle: carboxymethylcellulose (CMC) 107 % of control | dose: 12.0 mg/kg/injection, schedule: Q01DX015 (ip), vehicle: carboxymethylcellulose (CMC) 109 % of control | dose: 12.5 mg/kg/injection, schedule: Q01DX001 (ip), vehicle: carboxymethylcellulose (CMC) 112 % of control

CC(=O)OC1CC(OC2C(O)CC(OC3C(O)CC(OC4CCC5(C)C(CCC6C5CC(O)C5(C)C(C7=CC(=O)OC7)CCC65O)C4)OC3C)OC2C)OC(C)C1OC1OC(CO)C(O)C(O)C1O (centres undefined)
inactive: dose: 50.0 mg/kg/injection, schedule: Q01DX001 (sc), vehicle: steriod suspending solution 100 % of control | dose: 75.0 mg/kg/injection, schedule: Q01DX001 (ip), vehicle: other 95 % of control | dose: 100.0 mg/kg/injection, schedule: Q01DX001 (sc), vehicle: steriod suspending solution 109 % of control | dose: 150.0 mg/kg/injection, schedule: Q01DX001 (ip), vehicle: other 97 % of control | dose: 200.0 mg/kg/injection, schedule: Q01DX001 (sc), vehicle: steriod suspending solution 103 % of control | dose: 300.0 mg/kg/injection, schedule: Q01DX001 (ip), vehicle: other 93 % of control | dose: 400.0 mg/kg/injection, schedule: Q01DX001 (sc), vehicle: steriod suspending solution 105 % of control

O=C1c2ccccc2C(=O)c2c(Nc3ccc(S(=O)(=O)N(CCO)CCO)cc3)ccc(O)c21
inactive: [4] 97 % of control | [5] 100 % of control

C/C(=N\N)C(=O)c1ccccc1
inactive: dose: 100.0 mg/kg/injection, schedule: Q01DX001 (ip), vehicle: Klucel (hydroxypropylcellulose) (HPC) 103 % of control | [1] 98 % of control | dose: 200.0 mg/kg/injection, schedule: Q01DX001 (ip), vehicle: Klucel (hydroxypropylcellulose) (HPC) 93 % of control | [2] 94 % of control | dose: 400.0 mg/kg/injection, schedule: Q01DX001 (ip), vehicle: Klucel (hydroxypropylcellulose) (HPC) 101 % of control | [3] 96 % of control

COc1ccc(C(=O)N/N=C/c2cccc3ccccc23)cc1
inactive: dose: 100.0 mg/kg/injection, schedule: Q01DX009 (ip), vehicle: Klucel (hydroxypropylcellulose) (HPC) 105 % of control | dose: 200.0 mg/kg/injection, schedule: Q01DX009 (ip), vehicle: Klucel (hydroxypropylcellulose) (HPC) 103 % of control | dose: 400.0 mg/kg/injection, schedule: Q01DX009 (ip), vehicle: Klucel (hydroxypropylcellulose) (HPC) 108 % of control

Cc1c(Cl)cccc1NC(=O)Nc1cccc2c(O)cccc12
inactive: dose: 50.0 mg/kg/injection, schedule: Q01DX009 (ip), vehicle: saline with Tween-80 92 % of control | dose: 100.0 mg/kg/injection, schedule: Q01DX001 (ip), vehicle: saline with Tween-80 89 % of control | [6] 86 % of control and 89 % of control | dose: 200.0 mg/kg/injection, schedule: Q01DX001 (ip), vehicle: saline with Tween-80 90 % of control | [7] 86 % of control and 91 % of control | dose: 200.0 mg/kg/injection, schedule: Q04DX003 (ip), vehicle: saline with Tween-80 88 % of control | dose: 400.0 mg/kg/injection, schedule: Q01DX001 (ip), vehicle: saline with Tween-80 89 % of control | dose: 400.0 mg/kg/injection, schedule: Q01DX009 (ip), vehicle: saline with Tween-80 94 % of control and 87 % of control | [8] 87 % of control and 89 % of control

NC(=O)c1cc(=O)n(C2OC(CO)C(O)C2O)c2nc(N)nc(N)c12 (centres undefined)
inactive: dose: 12.5 mg/kg/injection, schedule: Q01DX005 (ip), vehicle: water 93 % of control | dose: 25.0 mg/kg/injection, schedule: Q01DX005 (ip), vehicle: water 90 % of control | dose: 50.0 mg/kg/injection, schedule: Q01DX005 (ip), vehicle: water 90 % of control | dose: 100.0 mg/kg/injection, schedule: Q01DX005 (ip), vehicle: water 90 % of control | dose: 200.0 mg/kg/injection, schedule: Q01DX005 (ip), vehicle: water 93 % of control

CC(C)(C)C(=O)Nc1ccc(S(=O)(=O)c2ccc(NC(=O)C(C)(C)C)cc2)cc1
inactive: [9] 95 % of control | [4] 93 % of control | [5] 93 % of control | [10] 98 % of control

CC(=O)NCCC(C)C
inactive: dose: 100.0 mg/kg/injection, schedule: Q04DX003 (ip), vehicle: saline 98 % of control | dose: 200.0 mg/kg/injection, schedule: Q04DX003 (ip), vehicle: saline 98 % of control | dose: 400.0 mg/kg/injection, schedule: Q04DX003 (ip), vehicle: saline 95 % of control

Brc1sccc1-c1cccc2ccccc12
inactive: dose: 100.0 mg/kg/injection, schedule: Q04DX003 (ip), vehicle: saline with Tween-80 94 % of control | dose: 400.0 mg/kg/injection, schedule: Q04DX003 (ip), vehicle: saline with Tween-80 91 % of control

Clc1ccc(Sc2ccccc2)cc1
inactive: [1] 105 % of control | [2] 88 % of control | [3] 105 % of control

CSc1cccc[n+]1C
inactive: dose: 75.0 mg/kg/injection, schedule: Q01DX001 (ip), vehicle: saline 104 % of control

Cc1cc(C)c([I+]c2ccccc2C(=O)[O-])c(C)c1
inactive: [9] 97 % of control | [4] 105 % of control | [5] 100 % of control | [10] 103 % of control

CCCCCCCCCCCCCCCCCCOS(=O)(=O)c1ccc(C)cc1
inactive: dose: 12.5 mg/kg/injection, schedule: Q01DX009 (ip), vehicle: Klucel (hydroxypropylcellulose) (HPC) 98 % of control | dose: 25.0 mg/kg/injection, schedule: Q01DX009 (ip), vehicle: Klucel (hydroxypropylcellulose) (HPC) 95 % of control | dose: 50.0 mg/kg/injection, schedule: Q01DX009 (ip), vehicle: Klucel (hydroxypropylcellulose) (HPC) 95 % of control

CSc1nc2c(=O)[nH]cnc2n1C1OC(CO)C(O)C1O (centres undefined)
inactive: [4] 97 % of control | [5] 111 % of control | [10] 103 % of control

CC1=NN(c2ccccc2)C(=O)C1N=Nc1ccc(S(=O)(=O)Nc2ccccn2)cc1 (centres undefined)
inactive: [11] 97 % of control | [12] 94 % of control | [13] 97 % of control

CC1(C)N=C(N)N=C(N)N1c1ccc(CC(=O)Nc2ccc(S(=O)(=O)F)cc2)cc1
inactive: dose: 0.8 mg/kg/injection, schedule: Q01DX009 (ip), vehicle: saline 95 % of control | dose: 4.0 mg/kg/injection, schedule: Q01DX009 (ip), vehicle: saline 95 % of control | dose: 20.0 mg/kg/injection, schedule: Q01DX009 (ip), vehicle: saline 97 % of control | dose: 100.0 mg/kg/injection, schedule: Q01DX009 (ip), vehicle: saline 97 % of control | dose: 500.0 mg/kg/injection, schedule: Q01DX009 (ip), vehicle: saline 94 % of control

CC(=O)OCCc1ccc(Cl)cc1
inactive: [6] 93 % of control | [7] 96 % of control | [8] 100 % of control

O=C(CCCC(=O)OCC(F)(F)C(F)(F)C(F)(F)C(F)F)OCC(F)(F)C(F)(F)C(F)(F)C(F)F
inactive: dose: 50.0 mg/kg/injection, schedule: Q01DX001 (ip), vehicle: carboxymethylcellulose (CMC) 102 % of control | [11] 100 % of control | [12] 100 % of control | [13] 100 % of control
